Reference: patent US20240247069A1, “FGFR3 BINDING MOLECULES AND METHODS OF USE THEREOF” (Regeneron Pharmaceuticals, Inc., priority 2023, published 2024)

Assays:
Type in all cases: cell-based
Settings in all cases: FGF1/heparin, 72 hours
[1] = system: BaF3 cells expressing FGFR3 S249C+V557L; test: BaF3 cell proliferation, FGFR3 S249C+V557L
From the text: (§1) cDNA expressing FGFR3 mutants (S249C, S248C, Y375C, V555M, V555L, S249C+V555M, or S249C+V555L) were synthesized and cloned into pLVX Lenti-viral vector (Thermo Fisher). Viral particles were generated by lipofectamine transfection of LentiX 293T cells using Lenti-X packaging single shots following manufacturer's protocol (Clontech/Takara) and concentrated using Lenti-X concentrator and titer determined using Lenti-X p24 rapid titer kit (Clontech/Takara). BaF3 cells were transduced with virus at ˜0.3 MOI.
(§2) For cell proliferation assays, engineered BaF3/hFGFR3 cells grown in complete medium were washed and plated in IL-3-free culture media±5 μg/ml heparin and 1 nM human FGF1. Cells were plated out at 1×10^5 cells/well into 96-well plates, followed by the addition of 1:3 serially diluted antibodies as indicated in figures. After addition of antibodies, cells were incubated at 37° C. for 72 h followed by the addition of CellTiter-Glo™ (Promega) reagent. The luminescent signal was detected by Envision plate reader (PerkinElmer). Data was analyzed using Prism software (GraphPad). […]

[2] = system: BaF3 cells expressing FGFR3 S249C+V557M; test: BaF3 cell proliferation, FGFR3 S249C+V557M
From the text: as §1, §2

[3] = system: BaF3 cells expressing FGFR3 V557L; test: BaF3 cell proliferation, FGFR3 V557L
From the text: as §1, §2

[4] = system: BaF3 cells expressing FGFR3 V557M; test: BaF3 cell proliferation, FGFR3 V557M
From the text: as §1, §2

AZD4547 [reference compound]
ineffective: effect on growth of BaF3 cells expressing FGFR3 S249C+V557L [1] | effect on growth of BaF3 cells expressing FGFR3 S249C+V557M [2] | effect on growth of BaF3 cells expressing FGFR3 V557L [3] | effect on growth of BaF3 cells expressing FGFR3 V557M [4]
